Measurements published in paper PMC5457628, “Inhibitors of ubiquitin E3 ligase as potential new antimalarial drug leads” (BMC Pharmacology & Toxicology, 2017).
Like-named read-outs stand apart in the source and are kept apart here.

How the values were obtained:
[1] = tested on: P. falciparum D6 (CQ-sensitive strain); assay: Antimalarial SYBR Green I-based fluorescence assay, PfD6; assay type: cell-based
Procedure: The medium of the culture was replaced every 48 h, flushed with a gas mixture of 90% N2, 5% CO2 and 5% O2 and incubated at 37 °C.
Only ring stages of the parasite were counted and adjusted to 2% parasitemia with 2% hematocrit. Stock solutions (10 mM) of the test inhibitors were prepared in DMSO. […] The maximum concentrations of E3 ligase inhibitors and CQ used in the assay were 50 μM and 500 nM respectively. The plates were incubated at 37 °C in 5% CO2, 5% O2, and 90% N2 environment for 48, 72, 96 and 120 h. After incubation, SYBR green with RBC lysis buffer was added to each well, and the plates were incubated for 1 h in the dark at room temperature. The standard antimalarial agent, CQ was tested as the positive control, and DMSO was tested as vehicle control. […] The anti-malarial activity (expressed as IC50 values) was determined by the dose-response analysis with XLfit©.

[2] = tested on: P. falciparum W2 (CQ-resistant strain); assay: Antimalarial SYBR Green I-based fluorescence assay, PfW2; assay type: cell-based; conditions: Plasmodium falciparum
Procedure: CQ-sensitive (D6, Sierra Leone) and -resistant (W2, Indochina) strains of P. falciparum cultures were obtained from Malaria Research and Reference Reagent Resource Center (MR4), USA and maintained at 5% hematocrit in complete culture medium (RPMI 1640 supplemented with 60 μg/mL amikacin, 27 mM NaHCO3 and 10% heat-inactivated normal human type A+ serum). The medium of the culture was replaced every 48 h, flushed with a gas mixture of 90% N2, 5% CO2 and 5% O2 and incubated at 37 °C.
CQ-sensitive P. falciparum D6 strain (Pf D6) and CQ-resistant P. falciparum W2 strain (Pf W2) were grown in RPMI 1640 medium supplemented with amikacin (60 μg/mL), NaHCO3 (27 mM) and 10% heat-inactivated normal human type A+ serum. Only ring stages of the parasite were counted and adjusted to 2% parasitemia with 2% hematocrit. Stock solutions (10 mM) of the test inhibitors were prepared in DMSO. The compounds were serially diluted in serum-free RPMI-1640 medium for testing at eight concentrations. The maximum concentrations of E3 ligase inhibitors and CQ used in the assay were 50 μM and 500 nM respectively. The plates were incubated at 37 °C in 5% CO2, 5% O2, and 90% N2 environment for 48, 72, 96 and 120 h. After incubation, SYBR green with RBC lysis buffer was added to each well, and the plates were incubated for 1 h in the dark at room temperature. The standard antimalarial agent, CQ was tested as the positive control, and DMSO was tested as vehicle control. Standard fluorescence was measured Fluostar Galaxy microplate reader (BMG Lab Technologies) at excitation wavelength of 485 nm and emission wavelength of 535 nm. The anti-malarial activity (expressed as IC50 values) was determined by the dose-response analysis with XLfit©.

[3] = tested on: P. falciparum D6 strain (PfD6); assay: Stage specific imaging analysis: parasitemia and differential stage counts in synchronized PfD6 culture (Giemsa smears); assay type: cell-based, Plasmodium falciparum; conditions: CQ 50 nM; for effect on parasitemia as compared to vehicle control: HLI 373 5 μM, Nutlin 3 35 μM; for overall parasitemia: synchronized PfD6, ~6% parasitemia at 0 h, JNJ 26854165 5 μM
Procedure: The stage-specific activity of the lead compounds was tested against Pf D6. […] The culture was synchronized by 5% sorbitol treatment as previously described. The synchronized culture of PfD6, with ~6% parasitemia and >90% of the parasite in ring stage, was used for these assays. Stock solutions (10 mM) of the test inhibitors were prepared in DMSO. […] The effect of the compounds was monitored after every 8 h (0, 8, 16, 24, 32, 40 and 48 h) by preparing thin smears of the infected erythrocytes. The slides were stained with Giemsa, and digital images of the parasite were captured with Nikon Eclipse microscope under bright field using NIS-element imaging software. The images were analyzed for the parasite stages and morphological changes (if any) in the parasite. The levels of parasitemia and differential parasitemia (relative percentage of different parasite stages) counts were also measured. At least one thousand erythrocytes (total- infected & uninfected) were counted from each slide for determination of the level of parasitemia and differential parasite stage counts.

[4] = In vitro cytotoxicity assay (AlamarBlue) against PMA-transformed THP1 cells; assay type: cell-based; conditions: human, PMA-transformed non-dividing THP1, mean ± SEM of duplicates, NC = not cytotoxic at highest concentration tested (50 μM inhibitors, 500 nM CQ), read-out: THP1 Cell Cytotoxicity (IC50)
Procedure: The E3 ligase inhibitors were also tested against Vero cells (African green monkey kidney epithelial cells) and transformed non-dividing human monocytic (THP1) cells. The methods described earlier were used to measure cytotoxicity for Vero and THP1 cells. In brief, four days’ old Vero and THP1 cell cultures were diluted with RPMI medium to 25,000 cells/mL. Vero cells (100 μL per well) were seeded in a clear 96 well culture plate and incubated for 24 h at 37 °C in a 5% CO2 incubator to obtain confluent cells. Phorbol 12-myristate 13-acetate (PMA) (25 ng/mL) was added to THP1 cell culture to transform the cells to adherent macrophages. PMA treated THP1cells were dispensed into clear 96 well culture plates (200 μL/well; 25,000 cells/mL) and incubated at 37 °C in a 5% CO2 incubator for overnight. The test compounds were prepared in DMSO at 10 mM concentration. The compounds were serially diluted in RPMI medium with 2% FBS in the separate daughter plates, for testing at eight concentrations. The cells were washed with culture medium, replaced with the fresh medium and test compounds were added. The maximum concentration of E3 ligase inhibitors and CQ used in these assays were 50 μM and 500 nM respectively. DMSO was tested as vehicle control in these assays. The plates were incubated further in a CO2 incubator at 37 °C for 48 h. After 48 h, 10 μL of AlamarBlue® was added to each well, and the plates were incubated in a CO2 incubator at 37 °C for overnight. […] IC50 values were computed by analyzing dose-response curves with XLfit©.

[5] = In vitro cytotoxicity assay (AlamarBlue) against Vero cells; assay type: cell-based; conditions: African green monkey, Vero cells (kidney epithelial cells), mean ± SEM of duplicates, NC = not cytotoxic at highest concentration tested (50 μM inhibitors, 500 nM CQ), read-out: Vero Cell Cytotoxicity (IC50)
Procedure: The E3 ligase inhibitors were also tested against Vero cells (African green monkey kidney epithelial cells) and transformed non-dividing human monocytic (THP1) cells. The methods described earlier were used to measure cytotoxicity for Vero and THP1 cells. In brief, four days’ old Vero and THP1 cell cultures were diluted with RPMI medium to 25,000 cells/mL. Vero cells (100 μL per well) were seeded in a clear 96 well culture plate and incubated for 24 h at 37 °C in a 5% CO2 incubator to obtain confluent cells. Phorbol 12-myristate 13-acetate (PMA) (25 ng/mL) was added to THP1 cell culture to transform the cells to adherent macrophages. PMA treated THP1cells were dispensed into clear 96 well culture plates (200 μL/well; 25,000 cells/mL) and incubated at 37 °C in a 5% CO2 incubator for overnight. The test compounds were prepared in DMSO at 10 mM concentration. The compounds were serially diluted in RPMI medium with 2% FBS in the separate daughter plates, for testing at eight concentrations. The cells were washed with culture medium, replaced with the fresh medium and test compounds were added. The maximum concentration of E3 ligase inhibitors and CQ used in these assays were 50 μM and 500 nM respectively. DMSO was tested as vehicle control in these assays. The plates were incubated further in a CO2 incubator at 37 °C for 48 h. […]

MDM2 = conditions: read-out: Ki, MDM 2 inhibitor; cited from earlier work
[6] = 40 h post-treatment, vehicle control 6.90
[7] = 48 h post-treatment, vehicle control 5.28%
[8] = Plasmodium falciparum, D6, 48 h; read-out: IC90 against PfD6 (concentration almost equivalent to IC90)
[9] = Plasmodium falciparum, D6; 48 h incubation; mean ± SEM of duplicates; NA = not active at highest concentration tested (50 μM inhibitors, 500 nM CQ); read-out: P. falciparum D6 (CQ-sensitive strain) IC50
[10] = Plasmodium falciparum, D6; 72 h incubation; mean ± SEM of duplicates; NA = not active at highest concentration tested (50 μM inhibitors, 500 nM CQ); read-out: P. falciparum D6 (CQ-sensitive strain) IC50
[11] = Plasmodium falciparum, D6; 96 h incubation; mean ± SEM of duplicates; NA = not active at highest concentration tested (50 μM inhibitors, 500 nM CQ); read-out: P. falciparum D6 (CQ-sensitive strain) IC50
[12] = Plasmodium falciparum, D6; 120 h incubation; mean ± SEM of duplicates; NA = not active at highest concentration tested (50 μM inhibitors, 500 nM CQ); read-out: P. falciparum D6 (CQ-sensitive strain) IC50
[13] = W2, 48 h incubation, mean ± SEM of duplicates, NA = not active at highest concentration tested (50 μM inhibitors, 500 nM CQ), read-out: P. falciparum W2 (CQ-resistant strain) IC50
[14] = W2, 72 h incubation, mean ± SEM of duplicates, NA = not active at highest concentration tested (50 μM inhibitors, 500 nM CQ), read-out: P. falciparum W2 (CQ-resistant strain) IC50
[15] = W2, 96 h incubation, mean ± SEM of duplicates, NA = not active at highest concentration tested (50 μM inhibitors, 500 nM CQ), read-out: P. falciparum W2 (CQ-resistant strain) IC50
[16] = W2, 120 h incubation, mean ± SEM of duplicates, NA = not active at highest concentration tested (50 μM inhibitors, 500 nM CQ), read-out: P. falciparum W2 (CQ-resistant strain) IC50
[17] = Plasmodium falciparum, D6; 48-120 h; read-out: IC50 against PfD6
[18] = W2, 48-120 h, read-out: IC50 against PfW2

Row | Structure (SMILES) | effect on parasitemia as compared to vehicle control ([3]; 40 h post-treatment) | overall parasitemia [3, 6] | overall parasitemia [3, 7] | IC50 at 48 h [4] | IC90 [1, 8] | IC50 [1, 9] | IC50 [1, 10] | IC50 [1, 11] | IC50 [1, 12] | IC50 [2, 13] | IC50 [2, 14] | IC50 [2, 15] | IC50 [2, 16] | IC50 at 48 h [5] | IC50 [1, 17] | IC50 [2, 18] | also measured
1 | CCN(CC)CCCC(C)Nc1ccnc2cc(Cl)ccc12 (centres unmarked) [Chloroquine] | significantly decreased the overall parasitemia | 2.40% | 1.92% | – | – | – | – | – | – | – | – | – | – | – | – | – | IC90 ([1]; Plasmodium falciparum, D6, 48 h, read-out: IC90 against PfD6 (concentration almost equivalent to IC90)): ~0.05 µM; IC50 ([1]; Plasmodium falciparum, D6, 48 h, read-out: P. falciparum D6 (CQ-sensitive strain) IC50): 0.03 ± 0.001 µM; IC50 ([1]; Plasmodium falciparum, D6, 72 h, read-out: P. falciparum D6 (CQ-sensitive strain) IC50): 0.02 ± 0.004 µM; IC50 ([1]; Plasmodium falciparum, D6, 96 h, read-out: P. falciparum D6 (CQ-sensitive strain) IC50): 0.02 ± 0.001 µM; IC50 ([1]; Plasmodium falciparum, D6, 120 h, read-out: P. falciparum D6 (CQ-sensitive strain) IC50): 0.02 ± 0.001 µM; IC50 ([2]; W2, 48 h, read-out: P. falciparum W2 (CQ-resistant strain) IC50): 0.19 ± 0.004 µM; IC50 ([2]; W2, 72 h, read-out: P. falciparum W2 (CQ-resistant strain) IC50): 0.19 ± 0.007 µM; IC50 ([2]; W2, 96 h, read-out: P. falciparum W2 (CQ-resistant strain) IC50): 0.2 ± 0.001 µM; IC50 ([2]; W2, 120 h, read-out: P. falciparum W2 (CQ-resistant strain) IC50): 0.19 ± 0.002 µM; parasites arrested at ring stage ([3]; 40 and 48 h post-treatment): more than 50%; parasites arrested at ring stage ([3]; 16 h post-treatment): around 50%
2 | COc1ccc(C2=N[C@@H](c3ccc(Cl)cc3)[C@@H](c3ccc(Cl)cc3)N2C(=O)N2CCNC(=O)C2)c(OC(C)C)c1 (racemic) [Nutlin 3] | significantly reduced | – | – | 35.2 ± 2.76 µM | ~35 µM | 12.8 ± 1.34 µM | 19.4 ± 0.34 µM | 15.9 ± 1.24 µM | 20 ± 4.52 µM | 18.6 ± 1.6 µM | 15.72 ± 0.04 µM | 15.4 ± 0.54 µM | 15.6 ± 2.17 µM | – | – | – | –
3 | O=C1c2ccccc2-c2nc3nonc3nc21 [SMER 3] | – | – | – | 5.8 ± 0.28 µM | – | 12.1 ± 0.68 µM | 49 ± 0.94 µM | – | – | 20.6 ± 5.19 µM | 23.7 ± 3.53 µM | 45.8 ± 0.09 µM | 48.6 ± 0.49 µM | 16 ± 0.55 µM | – | – | –
4 | CCc1c2ccccc2c(CSC(=N)N)c2ccccc12 [NSC 146109] | – | – | – | 1.2 ± 0.28 µM | – | 5.24 ± 0.2 µM | 4.8 ± 0.05 µM | 3.09 ± 0.08 µM | 2.52 ± 0.39 µM | 2.07 ± 0.22 µM | 2.63 ± 0.05 µM | 2.91 ± 0.03 µM | 3.23 ± 0.03 µM | 5.27 ± 0.05 µM | < 6 µM | < 6 µM | –
5 | c1ccc2c(CCNc3ccc(Nc4ccncc4)cc3)c[nH]c2c1 [JNJ 26854165, Serdemetan] | – | 1.90% | 1.76% | 22.4 ± 0.56 µM | ~5 µM | 2.17 ± 0.004 µM | 2.93 ± 0.03 µM | 1.41 ± 0.03 µM | 1.46 ± 0.12 µM | 1.86 ± 0.03 µM | 1.74 ± 0.27 µM | 2.28 ± 0.03 µM | 2.02 ± 0.36 µM | – | < 6 µM | < 6 µM | –
6 | Cc1ccc2ccc(C(Nc3ccccc3)c3ccccc3)c(O)c2n1 (centres unmarked) [NSC 66811] | – | – | – | 37.8 ± 4.1 µM | – | 32.2 ± 4.57 µM | 37 ± 1.8 µM | – | – | 28.7 ± 4.01 µM | 39 ± 2.71 µM | – | – | – | – | – | Ki (MDM2): 0.12 µM
